Test results from PMC7848973, “In Vivo Efficacy and Metabolism of the Antimalarial Cycleanine and Improved In Vitro Antiplasmodial Activity of Semisynthetic Analogues” (Antimicrobial Agents and Chemotherapy, 2021).
Where two headings read alike, the source gives them in different places. Marks after values point to notes of the source that are not given here. Values belong to the molecule of their own block, whether it stands above or below them.

What was measured:
[1] = system: P. falciparum chloroquine-sensitive strain D6; details: read-out: IC50 against P. falciparum strain D6; cited from earlier work
[2] = set-up: method as in earlier work; details: mice; cited from earlier work
[3] = Acute median lethal dose (LD50) of cycleanine in mice; assay type: in vivo; details: 24 h, intraperitoneal
Description: (§1) (iii) Experimental animals. Female and male Swiss albino mice (18 to 25 g) were obtained from the University of Uyo’s animal house. Before use, mice were kept in cages and acclimatized for 10 days. All mice were kept in cross-ventilated rooms at room temperature. The care and use of mice were performed in accordance with the National Institutes of Health Guide for the Care and Use of Laboratory Animals (1996). This investigation was approved by the University of Uyo’s Animal Ethics Committee.
(iv) Determination of median lethal dose (LD50) of cycleanine. The median lethal dose (LD50) of cycleanine was determined using albino mice by the intraperitoneal (i.p.) route ([40]). Different doses of cycleanine (10 to 5,000 mg/kg) were intraperitoneally administered to groups of three mice each. The mice were monitored for manifestation of physical signs of toxicity, including decrease of motor activity, writhing, decrease of body/limb tone, weakness, and death. The number of deaths in each group within 24 h was recorded. The LD50 value was calculated as the geometrical means of the minimum dose producing 100% mortality and the maximum dose producing 0%.

Plasmodium berghei [4] = assay: Curative activity during established P. berghei infection of mice; assay type: in vivo; details: curative model, n = 6; for MST: over 30 days
Description: (§2) (i) Malaria parasite. Chloroquine-sensitive strains of P. berghei were sourced from the National Institute of Medical Research (NIMER), Yaba Lagos, Nigeria, and maintained by subpassage in mice.
(§3) (ii) Parasite inoculation. Each mouse was inoculated intraperitoneally with about 1 × 10^7 P. berghei parasitized erythrocytes in 0.2 ml of infected blood (5 × 10^7 P. berghei erythrocytes/ml) according to published procedure ([39]).
as §1
(§4) (v) Drug administration. Cycleanine, chloroquine, and pyrimethamine were prepared in water and administered orally with the aid of a stainless metallic feeding cannula.
(viii) Curative activity of cycleanine. The curative activity of cycleanine was assessed according to a method described previously ([42], [44]). P. berghei was injected intraperitoneally into another 24 mice on the first day. Three days later, the mice were also separated into four groups of six mice per group. Groups 1 and 2 were administered different doses of cycleanine, 25 and 50 mg/kg, respectively, group 3 was given 5 mg/kg chloroquine (positive control), and group 4 was given 10 ml/kg distilled water (negative control). Cycleanine and chloroquine were given once a day for 5 days. Mouse tail blood samples were collected on each day, and Giemsa-stained thin smears were prepared to determine the parasitemia level. The MST of the mice in each group was determined over a period of 30 days.

[5] = system: P. falciparum chloroquine-sensitive clone 3D7; set-up: method as in PMID 26594753; details: read-out: IC50 against P. falciparum chloroquine-sensitive clone 3D7; cited from earlier work
Plasmodium berghei [6] = assay: Suppressive activity during early P. berghei infection of mice; assay type: in vivo; details: suppressive model; for Parasitemia after infection for 96 h / MST: mean ± SEM, n = 6; for MST: over 30 days
Description: as §2, §3, §1, §4
(vi) Suppressive activity of cycleanine. The schizontocidal activity of cycleanine and chloroquine against early P. berghei infection in mice was measured according to an established protocol ([25], [41], [42]). On the first day, 20 to 24 mice were infected with the parasite and randomly separated into four groups. The mice in groups 1 and 2 were given 25 and 50 mg/kg of cycleanine, respectively, those in group 3 were given 5 mg/kg of chloroquine (positive control), and those in group 4 were given distilled water (10 ml/kg, negative control) for four consecutive days. Thin films were made from the tail blood on the fifth day. Parasitized erythrocytes were counted in stained films (Giemsa stain) under a microscope. The average suppression of parasitemia (%) was calculated as follows: average % parasitemia positive control−average % parasitemia negative control/average % parasitemia negative control×100
The MST (in days) of the mice in each group was determined over a period of 30 days.

[7] = system: human ovarian epithelial (HOE) cells; details: cited from earlier work
[8] = system: P. falciparum Dd2 chloroquine-resistant strain; assay: In vitro antiplasmodial activity, SYBR green I fluorescence assay; assay type: cell-based, Plasmodium falciparum
Description: Normalized fluorescence signals were measured against controls with 1% DMSO (100% growth) and after exposure to a supralethal concentration (10 μM) of chloroquine (0% growth). Determination of the 50% inhibitory concentration (IC50) was performed from a log concentration versus the mean normalized fluorescence signal curve using GraphPad Prism software (v5.0). Each biological replicate consisted of three technical repeats, with three independent biological replicates performed.

Plasmodium berghei [9] = assay: Prophylactic activity in P. berghei infection of mice; assay type: in vivo; details: prophylactic model; for Parasitemia level after infection for 72 h / MST: mean ± SEM, n = 6; for MST: over 30 days
Description: as §2, §3, §1, §4
(vii) Prophylactic activity of cycleanine. The prophylactic activity of cycleanine was evaluated using a previously described method ([42], [43]). The mice were randomly divided into four groups of six mice per group. Groups 1 and 2 were given 25 and 50 mg/kg of cycleanine, respectively, group 3 was given 1.2 mg/kg of pyrimethamine (positive control), and group 4 was given 10 ml/kg of distilled water (negative control). Administration of cycleanine or the drug continued for three consecutive days. On the fourth day, the mice were inoculated with P. berghei. The parasitemia level was evaluated by blood smears after 3 days. The survival times (days) of the mice were recorded over a period of 30 days, and MST were calculated.

[10] = system: chloroquine-resistant P. falciparum strain W2; details: cited from earlier work
[11] = system: HCT-116 human colon carcinoma cells; details: cited from earlier work
[12] = system: human oral epidermoid carcinoma (KB) cells; set-up: method as in PMID 9917283; details: cited from earlier work
[13] = 25 mg/kg oral, mean ± SEM, 25 mg/kg
[14] = 50 mg/kg oral, mean ± SEM, 50 mg/kg
[15] = read-out: CC50 against HOE, human ovarian epithelial (HOE) cells
[16] = chloroquine-resistant strain, ref 16, read-out: IC50 against P. falciparum strain W2
[17] = chloroquine-resistant strain, ref 18, read-out: IC50 against P. falciparum strain W2
[18] = Plasmodium falciparum, DD2, chloroquine-resistant strain, mean ± SD, n = 3 independent biological repeats, read-out: IC50 against P. falciparum strain Dd2
[19] = Plasmodium falciparum, DD2, read-out: IC50 against P. falciparum strain Dd2

Molecule: cycleanine
IC50 [1]: 0.07 µM | LD50 [2]: 1100 mg/kg | Acute median lethal dose (LD50) [3]: 4500 mg/kg | Parasitaemia Day 3 (Plasmodium berghei [4]; 25 mg/kg oral, mean ± SEM): 12.7 ± 1.7% | Parasitaemia Day 5 (Plasmodium berghei [4]; [13]): 13.3% | MST (Plasmodium berghei [4]; [13]): 21 days | Parasitaemia Day 3 (Plasmodium berghei [4]; 50 mg/kg oral, mean ± SEM): 15.5 ± 0.9% | Parasitaemia Day 6 (Plasmodium berghei [4]; 50 mg/kg oral, mean ± SEM): 6.0 ± 1.0% | Parasitaemia Day 7 (Plasmodium berghei [4]; 50 mg/kg oral, mean ± SEM): 3.7 ± 1.1% | Parasitaemia Day 5 (Plasmodium berghei [4]; [14]): 10.5% | MST (Plasmodium berghei [4]; [14]): 25 days | IC50 [5]: 0.08 µM | Suppression of parasitemia at 96 h (Plasmodium berghei [6]; 25 mg/kg per day oral): 44.7% | Parasitemia after infection for 96 h (Plasmodium berghei [6]; 25 mg/kg per day oral): 15.7 ± 1.8^b % | MST (Plasmodium berghei [6]; 25 mg/kg per day oral): 24.7 ± 1.1^b days | Suppression of parasitemia at 96 h (Plasmodium berghei [6]; 50 mg/kg per day oral): 86.5% | Parasitemia after infection for 96 h (Plasmodium berghei [6]; 50 mg/kg per day oral): 3.8 ± 0.7^b % | MST (Plasmodium berghei [6]; 50 mg/kg per day oral): 28.2 ± 0.9^b days | CC50 [7, 15]: 35 ± 0.1 µM | IC50 ([8]; chloroquine-resistant strain, mean ± SD, n = 3 independent biological repeats, read-out: IC50 against P. falciparum strain Dd2): 17.7 ± 2 µM | Suppression of parasitemia level after infection for 72 h (Plasmodium berghei [9]; 25 mg/kg per day oral): 43.4% | Parasitemia level after infection for 72 h (Plasmodium berghei [9]; 25 mg/kg per day oral): 11.5 ± 0.9^b % | MST (Plasmodium berghei [9]; 25 mg/kg per day oral): 23.0 ± 0.6^b days | Suppression of parasitemia level after infection for 72 h (Plasmodium berghei [9]; 50 mg/kg per day oral): 59.0% | Parasitemia level after infection for 72 h (Plasmodium berghei [9]; 50 mg/kg per day oral): 8.3 ± 1.0^b % | MST (Plasmodium berghei [9]; 50 mg/kg per day oral): 24.5 ± 0.6^b days | IC50 [10, 16]: 0.25 µM | IC50 [10, 17]: 4.5 µM | CC50 ([11]; read-out: CC50 against cancer cell line HCT, HCT-116 human colon carcinoma cells): 531 µM | CC50 against cancer cell line KB [12]: > 33.7 µM

IC50 [8, 18]: 0.7 ± 0.1 µM
Molecule: COc1cc2c3c(c1OC)Oc1ccc(cc1)C[C@H]1c4c(c(CN(C)C)c(OC)c(OC)c4Oc4ccc(cc4)C[C@@H]3N(C)CC2)CCN1C [5-[(Dimethylamino)methyl]cycleanine (4), 5-[(Dimethylamino)methyl]cycleanine]
CC50 [7, 15]: 10 ± 0.2 µM

Molecule: CCc1nc(N)nc(N)c1-c1ccc(Cl)cc1 [Pyrimethamine, reference compound]
Suppression of parasitemia level after infection for 72 h (Plasmodium berghei [9]; 1.2 mg/kg per day oral): 76.2% | Parasitemia level after infection for 72 h (Plasmodium berghei [9]; 1.2 mg/kg per day oral): 4.8 ± 1.1^b % | MST (Plasmodium berghei [9]; 1.2 mg/kg per day oral): 29.8 ± 0.2^b days

IC50 [8, 18]: 1.8 ± 0.2 µM
Molecule: C#CCNCc1c2c3c(c(OC)c1OC)Oc1ccc(cc1)C[C@H]1c4c(cc(OC)c(OC)c4Oc4ccc(cc4)C[C@@H]3N(C)CC2)CCN1C [5-[(Propargylamino)methyl]cycleanine (5), 5-[(Propargylamino)methyl]cycleanine]
CC50 [7, 15]: 32 ± 1.6 µM

Molecule: COc1cc2c3c4c1Oc1cc5c(cc1O4)C(Cc1ccc(O)c(c1)Oc1ccc(cc1)CC3NCC2)N(C)CC5 (centres unmarked) [2′-Norcocsuline (3), 2′-norcocsuline]
IC50 [1]: 0.048 µM | CC50 [7, 15]: 8 ± 0.2 µM | IC50 [8, 18]: 7 ± 1.6 µM | IC50 ([10]; read-out: IC50 against chloroquine-resistant clone W2): 0.248 µM | CC50 against cancer cell line KB [12]: 3.8^b μM

Molecule: CCN(CC)CCCC(C)Nc1ccnc2cc(Cl)ccc12 (centres unmarked) [Chloroquine, reference compound]
IC50 [1]: 0.006 µM | Parasitaemia Day 3 (Plasmodium berghei [4]; 5 mg/kg oral, mean ± SEM): 12.4 ± 0.5% | Parasitaemia Day 4 (Plasmodium berghei [4]; 5 mg/kg oral, mean ± SEM): 2.1 ± 0.2% | Parasitaemia Day 6 (Plasmodium berghei [4]; 5 mg/kg oral): 0.0% | Parasitaemia Day 7 (Plasmodium berghei [4]; 5 mg/kg oral): 0.0% | Parasitaemia Day 5 (Plasmodium berghei [4]; 5 mg/kg oral, 5 mg/kg): 0% | MST (Plasmodium berghei [4]; 5 mg/kg oral, mean ± SEM, 5 mg/kg): 30 days | Suppression of parasitemia at 96 h (Plasmodium berghei [6]; 5 mg/kg per day oral): 94.0% | Parasitemia after infection for 96 h (Plasmodium berghei [6]; 5 mg/kg per day oral): 2.0 ± 0.8^b % | MST (Plasmodium berghei [6]; 5 mg/kg per day oral): 30.0 ± 0.0^b days | IC50 [8, 19]: 0.18 ± 0.03 µM | IC50 [10, 16]: 0.135 µM | CC50 against cancer cell line KB [12]: 33.7^b μM

Molecule: COc1cc2c3c(c1O)Oc1ccc(cc1)C[C@@H]1c4c(cc(OC)c(O)c4Oc4ccc(cc4)C[C@H]3N(C)CC2)CCN1C [Isochondodendrine (2), isochondodendrine]
CC50 [7]: 10.5 ± 1.2 µM | IC50 [8, 19]: 6.1 ± 1.3 µM | IC50 [10, 17]: 0.2 µM | CC50 [11]: 29 µM
